Patent publication EP0298064A2, “Birth control and diagnostic methods” (BIOCARB AB, priority 1987, dated 1989)

Legend:
667/9E9 = assay: Inhibition by oligosaccharide of 667/9E9 staining of endometrial sections; assay type: binding, mice; conditions: day 4 and 5 sections; addition of 1 mM
Method: Fixed or unfixed sections were hydrated in Dulbecco's phosphate buffer pH 7.2, containing 0.1% Bovine serum albumin and 0.05% Tween 20. All antibodies and sera were diluted in the same buffer. The sections were incubated for 30 minutes in a 1/20 dilution of normal non immune goat serum […] to prevent nonspecific binding. Monoclonal antibody supernatants were diluted to either 1/10 or 1/20. The sections were overlayered with 50 µl of the primary antibody and incubated overnight in a humidified atmosphere at 4°C. Following this the sections were rinsed 4 times in the buffer and again incubated for 30 minutes in 1/20 normal goat serum. They were then stained with the second antibody, a fluorescein isothiocyanate (FITC) conjugated goat anti-mouse IgM at a final dilution of 1/80. The sections were finally rinsed in the buffer and mounted in 2.5% DABCO (Boehringer Mannheim, Germany) in 80% glycerol.

implantation = assay: In vivo inhibition of implantation in the mouse (intrauterine injection); design: species or system NMRI mice
Method: In this study the effect of structure A, injected into the uteri of naturally mated and unstimulated mice, was investigated.
10 weeks old NMRI mice were caged with NMRI males of previously proven fertility.
At plug day 4 (at 1 p.m.) the mice were anaestezed using mebumal. The abdomen was opened through a midline incision and the genital tract was identified. A 6-0 selk sutur was placed around the vaginal top intraperitoneally. 5µl of Earle's balanced salt solution (EBS) supplemented with 5 mmol/l of structure A or unsupplemented were injected into the uterine horns. The test group contained 20 mice who were injected with supplemented media containing structure A, where as the controls (15 mice) were injected with EBS unsupplemented medium.

[1] = tested on: blastocyst implantation in murine endometrial epithelium monolayers; assay: In vitro implantation - mouse model (blastocysts co-cultured with endometrial monolayer); assay type: cell-based; conditions: for Test impl/total (no. of blastocysts implanting/total no. of blastocysts added to the culture): test medium supplemented with 0.1 mM test oligosaccharide, control medium values stand in the neighbouring column
Method: In the mouse in vitro implantation system blastocyst implantation in murine endometrial epithelium monolayers was compared in 2 different media: the control medium (i.e. a medium which had supported more than 80% murine blastocyst formation from 2-cell embryos within 72 hours) and test medium (i.e. identical with the control medium except supplemented with 0.1 mM test oligosaccharide).
As control medium we used Earle's minimum essential medium (MEM) (Flow Lab), supplemented with penicillin-G 0.0075 g/l, streptomycin 0.075 g/l, glutamine 1 mM, fetal calf serum 5% and a vegetable protein source 2% (Ultrose-G, LKB, 2216-100). The final osmolality was adjusted to 285 mOsmol/kg and a pH of 7.4.
The mice were F1 hybrid B6D2F1/Bom (from the Laboratory of Animal Breeding and Research Center, Gl.Bomholdt Gȧrd, LTv., 8680 Ry, Denmark). Females aged 26 days and weighing 13-18 g and mature 6 months old males of previously proven fertility were used. They were housed in air-conditioned quarters with pelleted food and water available ad libitum and light between 7.30 a.m. and 7.30 p.m.
The female mice were superovulated with 5 I.U. FSH/LH (Antex, Leo Pharmaceuticals, Denmark) injected intraperitoneally at 9 a.m. day 1. 48 hours later (on day 3), ovulation was induced with 2.5 I.U. HCG. They were caged with males at 1 p.m. and left overnight. Mating was confirmed on the morning of day 4 by the presence of a vaginal plug.
Females were sacrificed at 9 a.m. on day 5. The oviducts were isolated and the 2-cell embryos flushed from the tubes using hand drawn glass pipettes.
Handling the 2-cells embryos outside the CO₂ incubator was carried out in the control medium supplemented with a HEPES buffer 20 mM (Flow Lab. 16-884-49).
After the oviducts were collected, the uterus of each mouse was isolated. The uterus was opened longitudinally and scraped with a rubber policeman on the uterine epithelial surface to col lect endometrial cells. These cells were handled in the HEPES buffered control medium as well. […]

## CC(=O)N[C@H]1[C@H](O[C@H]2[C@@H](O)[C@@H](CO)O[C@@H](O[C@H]3[C@H](O)[C@@H](O)C(O)O[C@@H]3CO)[C@@H]2O)O[C@H](CO)[C@@H](O)[C@@H]1O[C@@H]1O[C@H](CO)[C@H](O)[C@H](O)[C@H]1O[C@@H]1O[C@@H](C)[C@@H](O)[C@@H](O)[C@@H]1O (stereo partly drawn) [structure A]
667/9E9
  inhibition of the staining of the endometrial sections by 667/9E9: could be inhibited
implantation; 5 mmol/l, 5µl into the uterine horns
  inhibition of implantation in vivo (in words): inhibits implantation in vivo in the mouse
implantation; 5µl EBS with 5 mmol/l injected into the uterine horns at plug day 4, 20 mice, controls 4.2
  Impl/horn: 1.15
[1]; oligosaccharide concentration of 0.1 mM
  inhibition of implantation of mouse embryos (in words): inhibits the implantation of mouse embryos
[1]
  Test impl/total (no. of blastocysts implanting/total no. of blastocysts added to the culture): 134/228

## CC(=O)N[C@H]1[C@H](O[C@H]2[C@@H](O)[C@@H](CO)O[C@@H](O[C@H]3[C@H](O)[C@@H](O)C(O)O[C@@H]3CO)[C@@H]2O)O[C@H](CO)[C@@H](O)[C@@H]1O[C@@H]1O[C@H](CO)[C@H](O)[C@H](O)[C@H]1O (stereo partly drawn) [structure B, reference compound]
[1]
  Test impl/total (no. of blastocysts implanting/total no. of blastocysts added to the culture): 92/129
